Measured values from patent publication US20040039554A1, “Iterative analysis of non-responding population in the design of pharmacogenetic studies” (priority 2000, published 2004).
Structures can show the parent of a compound that is named as a salt.

How the values were obtained:
[1] = system: female patients with IBS (non-constipated); assay: Relief of IBS symptoms in double-blind, placebo controlled clinical trials of alosetron, stratified by 5HTT genotype; assay type: in vivo, human; settings: in each of the three 5HTT genotypes
Text: FIG. 1 is a graph based on data collected from female patients enrolled in clinical trials of alosetron for the treatment of IBS. The study population was comprised of non-constipated individuals with IBS. The subjects were divided into 5HTT genotypes. Of the 219 subjects, 71(32.4%) were genotype del/del (deletion/deletion, alternatively denoted as “1/1”) 5HTT, 75 (34.2%) were genotype del/ins (deletion/insertion, alternatively denoted as “1/2”) 5HTT and 73 (33.3%) were genotype ins/ins (insert/insert, alternatively denoted as “2/2”) 5HTT. […] “Response” was defined as relief of IBS symptoms (abdominal pain and discomfort) during six weeks of a twelve week treatment study. Two hundred and nineteen subjects, received either alosetron (102 subjects) or matched placebo (117 subjects). The proportion of patients achieving response following treatment with alosetron was 68% (21/31) for del/del 5HTT, 64% (21/33) for del/ins 5HTT and 58% (22/38) for ins/ins 5HTT. The proportion of patients achieving response following treatment with placebo was 58% (23/40) for del/del 5HTT, 38% (16/42) for del/ins 5HTT and 34% (12/35) for ins/ins 5HTT. […]
The subjects' response to alosetron in the clinical trial setting was reviewed and correlated with genotype. […] The incidence of various other effects, including constipation, was also recorded. […]

[2] = system: patients with Irritable Bowel Syndrome (IBS); settings: double blind, placebo controlled studies; cited from earlier work

Cc1[nH]cnc1CN1CCc2c(c3ccccc3n2C)C1=O [alosetron, Alosetron hydrochloride]
effectiveness compared with placebo in relieving IBS symptoms [1]: more effective than placebo
effect on pain and bowel function in patients with IBS [2]: reduce pain and improve bowel function
